In ChEMBL document CHEMBL1201862, “PubChem BioAssay data set” (2004):
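Five compound concentrations were applied to cells in 96-well plates for 48 hours; endpoints were derived by simple linear interpolation of the resulting dose-response curve. GI50 is the concentration that inhibits growth by half.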 The source made the active and inactive calls. No stated cut-off is given here; in the data, active = GI50 up to about 1.1 µM and inactive = higher.

Legend:
Assay in all cases: NCI tumour cell line growth inhibition, 48 h
OVCAR-8 = tested on: OVCAR-8
OVCAR-5 = tested on: OVCAR-5
SN12C = tested on: SN12C
A549 = tested on: A549
SW-620 = tested on: SW-620
SF-295 = tested on: SF-295
TK-10 = tested on: TK-10
SF-539 = tested on: SF-539
MOLT-4 = tested on: MOLT-4
MDA-MB-231 = tested on: MDA-MB-231
HOP-62 = tested on: HOP-62
COLO 205 = tested on: COLO 205
SK-MEL-2 = tested on: SK-MEL-2
U-251 = tested on: U-251
MDA-N = tested on: MDA-N
OVCAR-4 = tested on: OVCAR-4
HT-29 = tested on: HT-29
SR = tested on: SR
RXF 393 = tested on: RXF 393
CCRF-CEM = tested on: CCRF-CEM

Measured: GI50

O=C(OCc1ccccc1)N1CCN(C(=O)OCc2ccccc2)CCN(C(=O)OCc2ccccc2)CCN(C(=O)OCc2ccccc2)CCN(C(=O)OCc2ccccc2)CC1
inactive: OVCAR-8 > 100 µM | OVCAR-5 > 100 µM | SN12C > 100 µM | A549 > 100 µM | SW-620 > 100 µM | SF-295 > 100 µM | TK-10 46.6 µM | SF-539 28.3 µM | MOLT-4 > 100 µM | MDA-MB-231 39.5 µM | HOP-62 65 µM | COLO 205 31.1 µM | SK-MEL-2 > 100 µM | U-251 76.7 µM | MDA-N > 100 µM | OVCAR-4 57.4 µM

Nc1nc2ncc(SCc3ccc(C(=O)NC(CCC(=O)O)C(=O)O)cc3)cc2c(=O)[nH]1 (configuration not stated)
inactive: OVCAR-8 > 100 µM | OVCAR-5 > 100 µM | SN12C > 100 µM | A549 > 100 µM | HT-29 > 100 µM | SW-620 > 100 µM | SF-295 > 100 µM | TK-10 > 100 µM | SF-539 > 100 µM | SR > 100 µM | MOLT-4 > 100 µM | HOP-62 > 100 µM | COLO 205 > 100 µM | SK-MEL-2 > 100 µM | U-251 > 100 µM | MDA-N > 100 µM | OVCAR-4 > 100 µM

CCC1c2[nH]c3ccccc3c2C[C@H]2C(=O)NC(COC(C)(C)C)C(=O)N12 (some centres not stated)
inactive: OVCAR-8 39.4 µM | OVCAR-5 47.3 µM | RXF 393 55.5 µM | SN12C 45.5 µM | A549 39.3 µM | HT-29 38.2 µM | SW-620 69 µM | SF-295 19.4 µM | TK-10 27.1 µM | SR 31.3 µM | MOLT-4 31.4 µM | MDA-MB-231 36.9 µM | HOP-62 76.6 µM | COLO 205 19.7 µM | SK-MEL-2 32.8 µM | U-251 40.7 µM | OVCAR-4 39.1 µM

Cc1nc2ccccc2c(=O)n1/N=C(\N=N\c1cc(Cl)ccc1Cl)c1ccccc1
inactive: OVCAR-8 65.9 µM | OVCAR-5 > 100 µM | RXF 393 63.5 µM | SN12C > 54.2 µM | A549 71 µM | HT-29 36.7 µM | SW-620 32.1 µM | SF-295 44.9 µM | TK-10 > 93.5 µM | SF-539 46.5 µM | CCRF-CEM 48.6 µM | SR 44.8 µM | MOLT-4 35 µM | MDA-MB-231 > 100 µM | HOP-62 12.4 µM | COLO 205 61.1 µM | SK-MEL-2 60.5 µM | U-251 27.1 µM | OVCAR-4 51.8 µM

O=C(Nc1cnc(O)nc1O)C(Cl)Cl
inactive: OVCAR-8 > 100 µM | RXF 393 > 100 µM | SN12C > 100 µM | A549 > 100 µM | HT-29 > 100 µM | SW-620 > 100 µM | SF-295 > 100 µM | TK-10 > 100 µM | SF-539 > 100 µM | CCRF-CEM > 100 µM | MOLT-4 > 100 µM | MDA-MB-231 > 100 µM | HOP-62 > 100 µM | COLO 205 > 100 µM | SK-MEL-2 > 100 µM | U-251 > 100 µM | MDA-N > 100 µM | OVCAR-4 > 100 µM

CNc1nc(OC)c2c(n1)n(C)c[n+]2C [HETEROMINE B]
inactive: OVCAR-8 > 100 µM | OVCAR-5 > 100 µM | RXF 393 > 100 µM | SN12C > 100 µM | A549 73.8 µM | HT-29 > 100 µM | SW-620 > 100 µM | SF-295 > 100 µM | TK-10 > 100 µM | SF-539 > 100 µM | CCRF-CEM > 100 µM | MOLT-4 > 100 µM | MDA-MB-231 > 100 µM | HOP-62 > 100 µM | COLO 205 > 100 µM | SK-MEL-2 53.3 µM | U-251 45.7 µM | MDA-N > 100 µM

Cc1ccc([S+]([O-])c2cccs2)cc1 (configuration not stated)
inactive: OVCAR-8 > 100 µM | OVCAR-5 > 100 µM | RXF 393 > 100 µM | SN12C > 100 µM | A549 > 100 µM | HT-29 > 100 µM | SW-620 > 100 µM | SF-295 > 100 µM | TK-10 > 100 µM | SF-539 > 100 µM | CCRF-CEM > 100 µM | SR > 100 µM | MOLT-4 > 100 µM | HOP-62 > 100 µM | COLO 205 > 100 µM | U-251 > 100 µM | MDA-N > 100 µM

O=C(NCCC1CN(C(=O)OCc2ccccc2)c2ccccc21)OCc1ccccc1 (configuration not stated)
inactive: OVCAR-8 > 100 µM | OVCAR-5 > 100 µM | RXF 393 > 100 µM | A549 85.3 µM | HT-29 > 100 µM | SW-620 > 100 µM | SF-295 > 100 µM | TK-10 > 100 µM | MOLT-4 > 100 µM | MDA-MB-231 > 100 µM | HOP-62 > 100 µM | COLO 205 > 100 µM | SK-MEL-2 > 100 µM | U-251 > 100 µM | MDA-N > 100 µM | OVCAR-4 > 100 µM

O=c1[nH]ncc2[nH]c3c4ccccc4ccc3c12
inactive: OVCAR-8 51.3 µM | OVCAR-5 39.9 µM | RXF 393 46.2 µM | A549 22.2 µM | HT-29 39 µM | SW-620 41.3 µM | SF-295 22.6 µM | TK-10 28.6 µM | SF-539 50.1 µM | CCRF-CEM 46.3 µM | SR 31.3 µM | MOLT-4 35.6 µM | HOP-62 40.6 µM | COLO 205 24.2 µM | U-251 24.8 µM | MDA-N 26.4 µM | OVCAR-4 44.5 µM

CC(/C=C/C(O)=C1/C(=O)CNC1=O)=C\[C@@H](C)[C@H]1O[C@@]2(C)O[C@H](C(=O)[C@@H]3O[C@@]32C)[C@@H]1C
inactive: OVCAR-8 20.2 µM | OVCAR-5 18.3 µM | RXF 393 1.14 µM | SN12C 20.3 µM | HT-29 21.9 µM | SW-620 29.8 µM | TK-10 19.2 µM | SF-539 18.7 µM | CCRF-CEM 7.24 µM | MOLT-4 14.7 µM | MDA-MB-231 18.4 µM | HOP-62 22.2 µM | COLO 205 20.7 µM | SK-MEL-2 22.7 µM | U-251 19.5 µM | MDA-N 35.8 µM

CC(C)C(=O)[C@@]1(C)SC[C@H]2CCN=C21
inactive: OVCAR-8 > 100 µM | OVCAR-5 > 100 µM | RXF 393 3.52 µM | SN12C > 100 µM | A549 > 100 µM | HT-29 > 100 µM | SW-620 > 100 µM | SF-295 > 100 µM | TK-10 > 100 µM | SF-539 > 100 µM | CCRF-CEM > 100 µM | SR 56.8 µM | MOLT-4 42.9 µM | COLO 205 > 100 µM | MDA-N 34.8 µM | OVCAR-4 74.6 µM
